The values below come from publication PMC6105845, “Nucleotide Prodrug Containing a Nonproteinogenic Amino Acid To Improve Oral Delivery of a Hepatitis C Virus Treatment” (Antimicrobial Agents and Chemotherapy, 2018).

The test system of data set [1] is HCV GT1a, GT1b and GT2a replicons. In words: HCV replicons GT1a, GT1b, GT2a in Huh-1C cells, summary across genotypes. The format is cell-based, hepatitis C virus. The protocol:
(§1) GT1a, GT1b, and GT2a are authentic subgenomic replicons of the indicated strain. Creation of these HCV replicons was reported previously ([7]).
(§2) RNA was transcribed in vitro using a MEGAscript […] kit (Ambion, Austin, TX) and transfected into Huh-Lunet and −1C cells using published methods ([21], [22]).
(§3) The EC50s, defined as the concentration at which there was a measured 50% decrease in HCV replicon level, were determined in replicon assay as previously described ([24]). Briefly, replicon cells were seeded into 96-well plates. Compounds were serially diluted in DMSO at 200× final concentrations and then added to the assay plate. Luciferase expression was quantified after 3 days of incubation using a commercial luciferase assay (Promega, Madison, WI). Data were analyzed using GraphPad Prism 6.0 (La Jolla, CA).
(§4) X represents log of compound concentration and Y represents replicon replication as the percentage of DMSO control. EC50s were calculated as an average from at least three independent experiments.
(In general: Replicon systems follow genome replication, usually without infectious particles.)

A further data set deals with HCV GT1a replicon. In words: HCV GT1a replicon, transiently transfected Huh-1C cells. Format: cell-based, hepatitis C virus. The settings on record: for EC50: Hepatitis C virus, GT1A, 72 h. As to the method:
as §1, §2, §3, §4

Data set [2] can be described thus: Metabolic stability in intestinal S9 fraction, dog. Format: in vitro ADME. As to the method: Blood plasma and S9 stability was studied as described previously ([8]). In brief, the compounds were incubated at 2 μM in hamster, rat, dog, monkey, or human plasma samples for up to 4 h at 37°C. For S9 stability, the compounds were incubated at 2 μM in hamster, rat, dog, monkey, or human intestinal and hepatic S9 fractions for up to 90 min at 37°C in the presence of NADPH and uridine 5′-diphosphoglucuronic acid trisodium salt (UDPGA) (Sigma-Adrich). The samples were analyzed by liquid chromatography coupled to triple-quadrupole mass spectrometry (LC-MS/MS).
The data (analyte-to-internal standard peak area ratio) were plotted on a semilog scale and fitted using an exponential fit. The half-life (t1/2) was determined assuming first-order kinetics.

Data set [3] concerns chimeric HCV replicons GT2b, GT3a, GT4a, GT5a, GT6a. In words: Chimeric replicons with NS5b of GT2b, GT3a, GT4a, GT5a, GT6a in GT1b background, transiently transfected Huh-1C cells. Format: cell-based, hepatitis C virus.

Some results are limits rather than exact numbers.

Regarding `CC(C)OC(=O)C(C)(C)N[P@](=O)(OC[C@H]1O[C@@](C#N)(c2ccc3c(N)ncnn23)[C@](C)(O)[C@@H]1O)Oc1ccccc1` [GS2], the “potency relative to the fast-eluting isomer (more potent)” value in data set [1] (GT1a, 1b, 2a, Huh-1C) is “approximately 4 fold”. Further, the “activity relative to GS-6620, average across the three genotypes” value in data set [1] (Huh-1C cells) is reported as at most 3 fold. For the same compound, the “Fold (GS2/GS-6620)” value in the data set with HCV GT1a replicon (EC50 ratio, GT1a, Huh-1C) is 3.5. Moreover, the EC50 was 140 ± 60 nM with HCV GT1a replicon and 91 to 158 nM in data set [3] (Hepatitis C virus, read-out: potency). The half-life (usually how long it takes for the measured level to halve) at 2 μM in data set [2] came out at 9.17 h. The “relative potency to GS-6620” value in data set [3] (chimeric replicons GT2b-GT6a, Huh-1C) is at most 2 fold.

Take `CC(C)OC(=O)[C@H](C)N[P@](=O)(OC[C@H]1O[C@@](C#N)(c2ccc3c(N)ncnn23)[C@](C)(O)[C@@H]1OC(=O)C(C)C)Oc1ccccc1` [GS-6620, reference compound]: the EC50 in the data set on HCV GT1a replicon came to 41 ± 19 nM. Also, in data set [2], the half-life at 2 μM came out at 0.55 h.
